Results published in US20100003250A1, “(2-ARYL-7H-PYRROLO[2,3-D]PYRIMIDIN-4-YL)MORPHOLINE COMPOUNDS, THEIR USE AS MTOR KINASE AND PI3 KINASE INHIBITORS, AND THEIR SYNTHESES” (Wyeth, priority 2008, published 2010).
Where two headings read alike, the source gives them in different places.

Tests used:
[1] = system: human tumor xenograft models; settings: cited from earlier work
[2] = system: acute lymphoblastic leukemia; settings: in vivo; cited from earlier work
[3] = target: mTOR (Homo sapiens, UniProt P42345); settings: read-out: mTOR IC50; mTOR complexes / mTOR enzymes; cited from earlier work
[4] = target: PI3Kα (Homo sapiens, UniProt P42336); assay: PI3K-alpha fluorescence polarization assay; format: biochemical; settings: 20 μM PIP2, 25 μM ATP; read-out: PI3Kα Median IC50
Sequence of PI3Kα (P42336 whole entry, species assumed): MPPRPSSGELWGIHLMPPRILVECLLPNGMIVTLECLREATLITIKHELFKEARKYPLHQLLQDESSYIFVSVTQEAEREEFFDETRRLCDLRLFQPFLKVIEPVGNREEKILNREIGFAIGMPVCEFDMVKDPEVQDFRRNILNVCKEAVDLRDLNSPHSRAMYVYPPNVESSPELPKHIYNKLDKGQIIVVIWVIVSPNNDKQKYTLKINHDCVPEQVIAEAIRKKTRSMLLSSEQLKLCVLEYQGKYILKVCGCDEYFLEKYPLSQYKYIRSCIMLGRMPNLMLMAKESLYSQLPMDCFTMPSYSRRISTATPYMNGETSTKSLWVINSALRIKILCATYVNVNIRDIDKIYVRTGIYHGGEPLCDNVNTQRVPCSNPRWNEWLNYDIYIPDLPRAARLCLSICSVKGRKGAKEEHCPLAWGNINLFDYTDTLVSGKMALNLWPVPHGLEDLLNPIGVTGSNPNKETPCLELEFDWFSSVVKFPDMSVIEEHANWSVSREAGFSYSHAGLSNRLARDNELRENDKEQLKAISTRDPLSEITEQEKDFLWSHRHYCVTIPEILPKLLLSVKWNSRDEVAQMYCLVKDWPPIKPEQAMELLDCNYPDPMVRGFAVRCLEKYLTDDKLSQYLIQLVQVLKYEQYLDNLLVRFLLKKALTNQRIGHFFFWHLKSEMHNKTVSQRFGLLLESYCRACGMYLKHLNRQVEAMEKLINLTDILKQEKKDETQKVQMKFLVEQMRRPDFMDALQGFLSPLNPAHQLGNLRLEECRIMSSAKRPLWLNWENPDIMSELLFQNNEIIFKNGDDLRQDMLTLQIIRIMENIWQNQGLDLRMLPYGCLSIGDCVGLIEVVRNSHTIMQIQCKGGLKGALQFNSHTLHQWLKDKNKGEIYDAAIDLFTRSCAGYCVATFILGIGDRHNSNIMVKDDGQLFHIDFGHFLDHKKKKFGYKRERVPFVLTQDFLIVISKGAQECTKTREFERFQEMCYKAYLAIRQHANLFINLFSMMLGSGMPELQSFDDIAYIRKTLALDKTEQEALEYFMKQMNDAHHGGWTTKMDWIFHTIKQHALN
Sequence of PI3Kα (P27986 whole entry partner, species assumed): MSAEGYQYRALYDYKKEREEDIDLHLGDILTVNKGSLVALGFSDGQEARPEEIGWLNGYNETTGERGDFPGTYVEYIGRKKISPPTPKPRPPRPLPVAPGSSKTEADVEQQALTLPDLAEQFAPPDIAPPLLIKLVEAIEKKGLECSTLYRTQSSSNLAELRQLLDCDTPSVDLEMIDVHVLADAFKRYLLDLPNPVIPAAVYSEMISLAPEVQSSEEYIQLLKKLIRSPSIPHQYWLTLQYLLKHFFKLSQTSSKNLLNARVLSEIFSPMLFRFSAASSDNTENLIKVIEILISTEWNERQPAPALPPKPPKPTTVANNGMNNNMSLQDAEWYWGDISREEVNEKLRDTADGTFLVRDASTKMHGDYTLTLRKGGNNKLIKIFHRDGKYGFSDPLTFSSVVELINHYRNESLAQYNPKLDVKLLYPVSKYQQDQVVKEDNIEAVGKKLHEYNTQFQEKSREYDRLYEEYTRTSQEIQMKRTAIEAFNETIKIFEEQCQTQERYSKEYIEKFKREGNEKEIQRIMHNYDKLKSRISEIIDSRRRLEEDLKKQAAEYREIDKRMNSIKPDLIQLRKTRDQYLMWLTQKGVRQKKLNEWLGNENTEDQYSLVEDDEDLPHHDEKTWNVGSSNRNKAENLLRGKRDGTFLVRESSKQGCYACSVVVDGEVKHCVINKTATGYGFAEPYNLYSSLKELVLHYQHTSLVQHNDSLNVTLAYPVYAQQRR

[5] = target: PI3Kγ (Homo sapiens, UniProt P48736); assay: PI3K-gamma fluorescence polarization assay; format: biochemical; settings: 20 μM PIP2, 25 μM ATP; read-out: PI3Kγ Median IC50
Sequence of PI3Kγ (P48736 whole entry, species assumed): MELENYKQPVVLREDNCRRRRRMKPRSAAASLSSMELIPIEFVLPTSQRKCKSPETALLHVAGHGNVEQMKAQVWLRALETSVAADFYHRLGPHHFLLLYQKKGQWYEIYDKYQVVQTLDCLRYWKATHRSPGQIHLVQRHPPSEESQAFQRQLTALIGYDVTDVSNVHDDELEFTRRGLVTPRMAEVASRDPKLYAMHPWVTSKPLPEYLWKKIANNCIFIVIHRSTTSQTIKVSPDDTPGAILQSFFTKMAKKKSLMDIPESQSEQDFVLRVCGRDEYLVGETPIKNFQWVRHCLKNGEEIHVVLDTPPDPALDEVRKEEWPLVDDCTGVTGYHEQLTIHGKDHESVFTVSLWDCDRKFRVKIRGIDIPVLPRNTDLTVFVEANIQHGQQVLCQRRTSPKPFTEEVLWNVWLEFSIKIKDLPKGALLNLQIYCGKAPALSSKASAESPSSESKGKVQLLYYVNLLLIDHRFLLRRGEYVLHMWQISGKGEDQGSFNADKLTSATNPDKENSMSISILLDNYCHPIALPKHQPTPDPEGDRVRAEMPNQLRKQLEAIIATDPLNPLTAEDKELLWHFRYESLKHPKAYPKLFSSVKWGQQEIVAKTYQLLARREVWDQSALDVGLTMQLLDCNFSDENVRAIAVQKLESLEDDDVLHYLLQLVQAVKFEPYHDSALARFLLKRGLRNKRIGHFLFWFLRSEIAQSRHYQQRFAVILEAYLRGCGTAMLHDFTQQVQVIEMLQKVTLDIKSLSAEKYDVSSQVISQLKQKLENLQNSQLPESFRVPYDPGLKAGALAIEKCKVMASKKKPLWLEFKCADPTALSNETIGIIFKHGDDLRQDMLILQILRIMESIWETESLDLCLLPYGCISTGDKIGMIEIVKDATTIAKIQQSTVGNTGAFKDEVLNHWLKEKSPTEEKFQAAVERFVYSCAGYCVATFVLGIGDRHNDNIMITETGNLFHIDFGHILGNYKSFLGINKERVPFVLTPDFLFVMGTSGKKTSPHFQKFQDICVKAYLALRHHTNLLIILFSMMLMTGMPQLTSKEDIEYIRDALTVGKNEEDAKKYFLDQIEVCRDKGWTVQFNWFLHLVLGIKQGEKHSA
How it was run: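 Enzyme preincubated with compound in 20 mM HEPES pH 7.5, 2 mM MgCl2, 0.05% CHAPS, 0.01% βME; reaction started with substrate giving 20 μM diC8 PIP2 and 25 μM ATP final, run 30-60 min at room temperature. Stopped with TAMRA-labelled PIP3 detector probe plus GST-GRP; PIP3 formation read by fluorescence polarization after 90-110 min.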

[6] = target: T1, mTOR Kinase (FLAG-TOR) (Homo sapiens, UniProt P42345); assay: mTOR kinase assay, purified enzyme, DELFIA format; format: biochemical; settings: 100 μM ATP, 1.25 μM His6-S6K; read-out: mTOR Kinase Median IC50
T1 construct: FLAG

Compound	IC50 [4] [nM]	IC50 [5] [nM]	IC50 [6] [nM]	also measured
Cn1c(=O)n(-c2ccc(C(C)(C)C#N)cc2)c2c3cc(-c4cnc5ccccc5c4)ccc3ncc21 [NVP-BEZ-235, 2-methyl-2-(4-(3-methyl-2-oxo-8-(quinolin-3-yl)-2,3-dihydro-1H-imidazo[4,5-c]quinolin-1-yl)phenyl)propanenitrile]	–	–	–	activity in human tumor xenograft models ([1]; prostrate (PC-3) and glioblastoma (U-87)): demonstrated activity
CO[C@H]1C[C@@H]2CC[C@@H](C)[C@@](O)(O2)C(=O)C(=O)N2CCCC[C@H]2C(=O)O[C@H]([C@H](C)C[C@@H]2CC[C@@H](OC(=O)C(C)(CO)CO)[C@H](OC)C2)CC(=O)[C@H](C)/C=C(\C)[C@@H](O)[C@@H](OC)C(=O)[C@H](C)C[C@H](C)/C=C/C=C/C=C/1C [Torisel]	–	–	–	activity in NOS/SCID xenograft mouse model of acute lymphoblastic leukemia [2]: active
Oc1cccc(-c2nc(N3CCOCC3)c3oc4ncccc4c3n2)c1 [PI103, 3-(4-(4-morpholinyl)pyrido[3′,2′:4,5]furo[3,2-d]pyrimidin-2-yl)phenol]	–	–	–	activity in human tumor xenograft models ([1]; I.P. dosing in mice, U87MG, PC3, MDA-MB-468, MDA-MB-435, HCT 116, SKOV3, IGROV-1): demonstrated activity
FC(F)c1nc2ccccc2n1-c1nc(N2CCOCC2)nc(N2CCOCC2)n1 [ZSTK474, 2-(2-difluoromethylbenzoimidazol-1-yl)-4,6-dimorpholino-1,3,5-triazine]	–	–	–	tumor growth in mouse human xenograft cancer models ([1]; chronic oral administration, 400 mg/kg, A549, PC-3, WiDr): completely inhibited growth; IC50 [3]: > 10000 nM
CC(C)n1ccc2c(N3CCOCC3)nc(-c3ccc(NC(=O)Nc4ccc(C(=O)N5CCN(C)CC5)cc4)cc3)nc21 [Compound 82, 1-[4-(7-isopropyl-4-morpholin-4-yl-7H-pyrrolo[2,3-d]pyrimidin-2-yl)phenyl]-3-{4-[(4-methylpiperazin-1-yl)carbonyl]phenyl}urea]	3.3	38	1.5	–
CCn1ccc2c(N3CCOCC3)nc(-c3ccc(NC(=O)Nc4ccc(C(=O)NCCCN(C)C)cc4)cc3)nc21 [Compound 74, N-[3-(dimethylamino)propyl]-4-({[4-(7-ethyl-4-morpholin-4-yl-7H-pyrrolo[2,3-d]pyrimidin-2-yl)phenyl]carbamoyl}amino)benzamide]	1.9	32	1.2	–
O=C(Nc1ccc(CO)cc1)Nc1ccc(-c2nc(N3CCOCC3)c3ccn(CC(F)(F)F)c3n2)cc1 [Compound 40, 1-[4-(hydroxymethyl)phenyl]-3-{4-[4-morpholin-4-yl-7-(2,2,2-trifluoroethyl)-7H-pyrrolo[2,3-d]pyrimidin-2-yl]phenyl}urea]	12	80	1.09	–
Cn1ccc2c(N3CCOCC3)nc(-c3ccc(NC(=O)Nc4cccnc4)cc3)nc21 [Compound 44, 1-[4-(7-methyl-4-morpholin-4-yl-7H-pyrrolo[2,3-d]pyrimidin-2-yl)phenyl]-3-pyridin-3-ylurea]	26	144	1.9	–
COC(=O)c1ccc(NC(=O)Nc2ccc(-c3nc(N4CCOCC4)c4ccn(CC(F)(F)F)c4n3)cc2)cc1 [Compound 50, methyl 4-[({4-[4-morpholin-4-yl-7-(2,2,2-trifluoroethyl)-7H-pyrrolo[2,3-d]pyrimidin-2-yl]phenyl}carbamoyl)amino]benzoate]	8710	> 10000	4.9	–
